Biological target: T1, Vitamin D3 receptor (Homo sapiens, UniProt P11473)
T1 sequence (P11473 whole entry): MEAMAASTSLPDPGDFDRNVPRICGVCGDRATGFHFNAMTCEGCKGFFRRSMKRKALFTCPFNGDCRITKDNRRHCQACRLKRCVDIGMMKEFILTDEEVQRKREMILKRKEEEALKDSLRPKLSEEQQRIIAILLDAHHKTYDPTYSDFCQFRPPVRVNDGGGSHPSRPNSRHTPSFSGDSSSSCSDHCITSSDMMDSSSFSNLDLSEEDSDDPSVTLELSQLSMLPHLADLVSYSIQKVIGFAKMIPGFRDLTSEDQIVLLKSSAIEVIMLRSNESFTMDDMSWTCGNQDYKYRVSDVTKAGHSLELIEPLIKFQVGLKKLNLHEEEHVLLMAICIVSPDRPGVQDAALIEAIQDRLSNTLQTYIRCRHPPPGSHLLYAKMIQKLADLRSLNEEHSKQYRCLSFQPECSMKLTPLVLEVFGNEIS
Test: Displacement of [3H]1alpha,25-dihydroxyvitamin D3 from human recombinant GST-tagged vitamin D3 receptor LBD expressed in Escherichia coli BL21 after 16 hrs

- IC50: 0.38 nM
SMILES: C=C1[C@H](O)CC(=C/C=C2\CCC[C@]3(C)[C@@H]([C@H](C)[C@@H](CC)CC(O)(CC)CC)CC[C@@H]23)C[C@H]1O

— ChEMBL document CHEMBL2057157, “Butyl pocket formation in the vitamin D receptor strongly affects the agonistic or antagonistic behavior of ligands” (J Med Chem, 2012)
